# Measurements from patent US20100216791A1, “PYRIDINYLQUINAZOLINAMINE DERIVATIVES AND THEIR USE AS B-RAF INHIBITORS” (ASTRAZENECA, priority 2006, published 2010).
# Biological target: Mutant B-Raf (V600E) enzyme (MT B-Raf) (Homo sapiens, UniProt P15056, V600E)
# Test: biochemical
# Details: B-Raf Alpha screen comparable to the described assay; phosphorylation of biotinylated HIS-MEK-AVI; results may be an average of two or more results
# Chain of Mutant B-Raf (V600E) enzyme (MT B-Raf) (P15056 whole entry V600E): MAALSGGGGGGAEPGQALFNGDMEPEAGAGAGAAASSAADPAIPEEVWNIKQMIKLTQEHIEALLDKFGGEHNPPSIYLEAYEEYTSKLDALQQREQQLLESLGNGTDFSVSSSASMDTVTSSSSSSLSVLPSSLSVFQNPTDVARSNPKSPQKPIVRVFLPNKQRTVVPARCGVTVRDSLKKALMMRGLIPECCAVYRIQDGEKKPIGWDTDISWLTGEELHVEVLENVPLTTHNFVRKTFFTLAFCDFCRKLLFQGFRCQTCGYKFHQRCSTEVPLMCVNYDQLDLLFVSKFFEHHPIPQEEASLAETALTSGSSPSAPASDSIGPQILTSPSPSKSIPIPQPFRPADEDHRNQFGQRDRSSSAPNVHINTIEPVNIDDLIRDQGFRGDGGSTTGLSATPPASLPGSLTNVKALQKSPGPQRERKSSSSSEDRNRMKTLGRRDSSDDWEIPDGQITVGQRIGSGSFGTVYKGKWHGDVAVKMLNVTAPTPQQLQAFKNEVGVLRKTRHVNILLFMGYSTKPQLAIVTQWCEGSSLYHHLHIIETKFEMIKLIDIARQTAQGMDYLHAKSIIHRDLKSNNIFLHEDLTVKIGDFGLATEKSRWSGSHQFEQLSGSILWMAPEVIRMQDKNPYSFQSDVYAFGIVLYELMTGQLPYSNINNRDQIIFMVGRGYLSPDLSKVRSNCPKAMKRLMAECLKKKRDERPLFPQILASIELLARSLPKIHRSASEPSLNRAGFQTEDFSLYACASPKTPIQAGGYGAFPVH
row,SMILES,IC50
1,"CN(CCO)Cc1ccc(Nc2ncc3cc(-c4ccncc4)ccc3n2)cc1 [Example 75, 2-(Methyl{4-[(6-pyridin-4-ylquinazolin-2-yl)amino]benzyl}amino)ethanol]",24 nM
2,"CCN(CCO)Cc1ccc(Nc2ncc3cc(-c4ccncc4)ccc3n2)cc1 [Example 77, 2-(Ethyl{4-[(6-pyridin-4-ylquinazolin-2-yl)amino]benzyl}amino)ethanol]",99 nM
3,"OCc1ccc(Nc2ncc3cc(-c4ccncc4)ccc3n2)cc1 [Example 78, {4-[(6-Pyridin-4-ylquinazolin-2-yl)amino]phenyl}methanol]",66 nM
4,"c1cc(-c2ccc3nc(Nc4ccc(N5CCOCC5)cc4)ncc3c2)ccn1 [Example 79, N-(4-Morpholin-4-ylphenyl)-6-pyridin-4-ylquinazolin-2-amine]",130 nM
5,"Oc1ccc(Nc2ncc3cc(-c4ccncc4)ccc3n2)cc1 [Example 81, 4-[(6-Pyridin-4-ylquinazolin-2-yl)amino]phenol]",61 nM
6,"c1cc(Nc2ncc3cc(-c4ccncc4)ccc3n2)cc(N2CCOCC2)c1 [Example 85, N-(3-Morpholin-4-ylphenyl)-6-pyridin-4-ylquinazolin-2-amine]",390 nM
7,"CCN(CCO)c1ccc(Nc2ncc3cc(-c4ccncc4)ccc3n2)cc1 [Example 92, 2-(Ethyl{4-[(6-pyridin-4-ylquinazolin-2-yl)amino]phenyl}amino)ethanol]",92 nM
8,"O=S(=O)(c1cccc(Nc2ncc3cc(-c4ccncc4)ccc3n2)c1)N1CCCC1 [Example 93, 6-Pyridin-4-yl-N-[3-(pyrrolidin-1-ylsulfonyl)phenyl]quinazolin-2-amine]",3000 nM
9,"O=S(=O)(c1ccc(Nc2ncc3cc(-c4ccncc4)ccc3n2)cc1)C(F)F [Example 95, N-{4-[(Difluoromethyl)sulfonyl]phenyl}-6-pyridin-4-ylquinazolin-2-amine]",1000 nM
10,"O=S(=O)(c1ccc(Nc2ncc3cc(-c4ccncc4)ccc3n2)cc1)N1CCCC1 [Example 96, 6-Pyridin-4-yl-N-[4-(pyrrolidin-1-ylsulfonyl)phenyl]quinazolin-2-amine]",740 nM
11,"CCOc1ccc(Nc2ncc3cc(-c4ccncc4)ccc3n2)cc1 [Example 97, N-(4-Ethoxyphenyl)-6-pyridin-4-ylquinazolin-2-amine]",450 nM
12,"O=S(=O)(c1cccc(Nc2ncc3cc(-c4ccncc4)ccc3n2)c1)N1CCCCC1 [Example 100, N-[3-(Piperidin-1-ylsulfonyl)phenyl]-6-pyridin-4-ylquinazolin-2-amine]",1000 nM
13,"COc1cc(Nc2ncc3cc(-c4ccncc4)ccc3n2)cc(C(F)(F)F)c1 [Example 101, N-[3-Methoxy-5-(trifluoromethyl)phenyl]-6-pyridin-4-ylquinazolin-2-amine]",1700 nM
14,"O=S(=O)(c1cccc(Nc2ncc3cc(-c4ccncc4)ccc3n2)c1)N1CCOCC1 [Example 102, N-[3-(Morpholin-4-ylsulfonyl)phenyl]-6-pyridin-4-ylquinazolin-2-amine]",520 nM
15,"CS(=O)(=O)c1ccc(Nc2ncc3cc(-c4ccncc4)ccc3n2)cc1 [Example 103, N-[4-(Methylsulfonyl)phenyl]-6-pyridin-4-ylquinazolin-2-amine]",62 nM
16,"CS(=O)(=O)c1cccc(Nc2ncc3cc(-c4ccncc4)ccc3n2)c1 [Example 104, N-[3-(Methylsulfonyl)phenyl]-6-pyridin-4-ylquinazolin-2-amine]",160 nM
17,"Fc1ccc(Nc2ncc3cc(-c4ccncc4)ccc3n2)cc1 [Example 105, N-(4-Fluorophenyl)-6-pyridin-4-ylquinazolin-2-amine]",1200 nM
18,"Cc1ccc(Nc2ncc3cc(-c4ccncc4)ccc3n2)cc1 [Example 106, N-(4-Methylphenyl)-6-pyridin-4-ylquinazolin-2-amine]",23000 nM
19,"CN(C)c1ccc(Nc2ncc3cc(-c4ccncc4)ccc3n2)cc1 [Example 107, N,N-Dimethyl-N′-(6-pyridin-4-ylquinazolin-2-yl)benzene-1,4-diamine]",1900 nM
20,"Cc1nc2cc(Nc3ncc4cc(-c5ccncc5)ccc4n3)ccc2o1 [Example 109, N-(2-Methyl-1,3-benzoxazol-5-yl)-6-pyridin-4-ylquinazolin-2-amine]",940 nM
21,COCCNS(=O)(=O)c1ccc(Nc2ncc3cc(-c4ccncc4)ccc3n2)cc1 [Example 113],100 nM
22,"CN1CCCN(C(=O)c2ccc(Nc3ncc4cc(-c5ccncc5)ccc4n3)cc2)CC1 [Example 116, N-{4-[(4-Methyl-1,4-diazepan-1-yl)carbonyl]phenyl}-6-pyridin-4-ylquinazolin-2-amine]",63 nM
23,CN1CCN(C(=O)c2ccc(Nc3ncc4cc(-c5ccncc5)ccc4n3)cc2)CC1 [Example 120],56 nM
24,Cc1cc(Nc2ncc3cc(-c4ccncc4)ccc3n2)ccc1C(C)N(C)P(C)(C)=O (centres unmarked) [Example 130],120 nM
25,"CC(c1ccc(Nc2ncc3cc(-c4ccncc4)ccc3n2)cc1)N1CCCC1 (centres unmarked) [Example 131, 6-(Pyridin-4-yl)-N-(4-(1-(pyrrolidin-1-yl)ethyl)phenyl)quinazolin-2-amine]",19 nM
26,CN1CCN(Cc2ccc(Nc3ncc4cc(-c5ccncc5)ccc4n3)cc2)CC1 [Example 132],73 nM
27,CC(c1ccc(Nc2ncc3cc(-c4ccncc4)ccc3n2)cc1)N(C)C (centres unmarked) [Example 133],46 nM
28,CC(c1ccc(Nc2ncc3cc(-c4ccncc4)ccc3n2)cc1)N(C)CCCO (centres unmarked) [Example 135],29 nM
29,CCCNC(C)c1ccc(Nc2ncc3cc(-c4ccncc4)ccc3n2)cc1 (centres unmarked) [Example 138],47 nM

# The next lines start with the values.
row,IC50,SMILES
1,3100 nM,"FC(F)(F)c1cccc(Nc2ncc3cc(-c4ccncc4)ccc3n2)c1 [Example 82, 6-Pyridin-4-yl-N-[3-(trifluoromethyl)phenyl]quinazolin-2-amine]"
2,630 nM,"Cc1cccc(Nc2ncc3cc(-c4ccncc4)ccc3n2)c1 [Example 83, N-(3-Methylphenyl)-6-pyridin-4-ylquinazolin-2-amine]"
3,820 nM,"CCCCNS(=O)(=O)c1cccc(Nc2ncc3cc(-c4ccncc4)ccc3n2)c1 [Example 84, N-Butyl-3-[(6-pyridin-4-ylquinazolin-2-yl)amino]benzenesulfonamide]"
4,1500 nM,"CC(C)Oc1cccc(Nc2ncc3cc(-c4ccncc4)ccc3n2)c1 [Example 86, N-(3-Isopropoxyphenyl)-6-pyridin-4-ylquinazolin-2-amine]"
5,2200 nM,"COc1cc(Nc2ncc3cc(-c4ccncc4)ccc3n2)ccc1C [Example 87, N-(3-Methoxy-4-methylphenyl)-6-pyridin-4-ylquinazolin-2-amine]"
6,1820 nM,"Cn1ccc(Nc2ncc3cc(-c4ccncc4)ccc3n2)n1 [Example 88, N-(1-Methyl-1H-pyrazol-3-yl)-6-pyridin-4-ylquinazolin-2-amine]"
7,280 nM,"c1cc(-c2ccc3nc(Nc4ccc(N5CCCCC5)cc4)ncc3c2)ccn1 [Example 89, N-(4-Piperidin-1-ylphenyl)-6-pyridin-4-ylquinazolin-2-amine]"
8,110 nM,"c1cc(-c2ccc3nc(Nc4ccc(N5CCOCC5)nc4)ncc3c2)ccn1 [Example 90, N-(6-Morpholin-4-ylpyridin-3-yl)-6-pyridin-4-ylquinazolin-2-amine]"
9,300 nM,"O=S(=O)(c1ccc(Nc2ncc3cc(-c4ccncc4)ccc3n2)cc1)N1CCOCC1 [Example 94, N-[4-(Morpholin-4-ylsulfonyl)phenyl]-6-pyridin-4-ylquinazolin-2-amine]"
10,630 nM,"Fc1cccc(Nc2ncc3cc(-c4ccncc4)ccc3n2)c1 [Example 98, N-(3-Fluorophenyl)-6-pyridin-4-ylquinazolin-2-amine]"
11,1100 nM,"FC(F)(F)Oc1ccc(Nc2ncc3cc(-c4ccncc4)ccc3n2)cc1 [Example 99, 6-Pyridin-4-yl-N-[4-(trifluoromethoxy)phenyl]quinazolin-2-amine]"
12,250 nM,"c1cnn(-c2ccc(Nc3ncc4cc(-c5ccncc5)ccc4n3)cc2)c1 [Example 108, N-[4-(1H-Pyrazol-1-yl)phenyl]-6-pyridin-4-ylquinazolin-2-amine]"
13,6800 nM,COCCNC(=O)c1ccc(Nc2ncc3cc(-c4ccncc4)ccc3n2)c(OC)c1 [Example 114]
14,520 nM,COCCNC(=O)c1ccc(Nc2ncc3cc(-c4ccnc(OC)c4)ccc3n2)cc1 [Example 115]
15,73 nM,CN(C)C1CCN(C(=O)c2ccc(Nc3ncc4cc(-c5ccncc5)ccc4n3)cc2)C1 (centres unmarked) [Example 117]
16,93 nM,CN(C)[C@H]1CCN(C(=O)c2ccc(Nc3ncc4cc(-c5ccncc5)ccc4n3)cc2)C1 [Example 118]
17,64 nM,CC(=O)N1CCN(C(=O)c2ccc(Nc3ncc4cc(-c5ccncc5)ccc4n3)cc2)CC1 [Example 119]
18,78 nM,"O=C(O)c1ccc(Nc2ncc3cc(-c4ccncc4)ccc3n2)cc1 [Example 122, 4-(6-(Pyridin-4-yl)quinazolin-2-ylamino)benzoic acid]"
19,35 nM,CC(c1ccc(Nc2ncc3cc(-c4ccncc4)ccc3n2)cc1)N(C)CCO (centres unmarked) [Example 134]
20,37 nM,"CC(NCC1CC1)c1ccc(Nc2ncc3cc(-c4ccncc4)ccc3n2)cc1 (centres unmarked) [Example 136, N-(4-{1-[(Cyclopropylmethyl)amino]ethyl}phenyl)-6-pyridin-4-ylquinazolin-2-amine]"
21,80 nM,Nc1ccc(Nc2ncc3cc(-c4ccncc4)ccc3n2)cc1 [Example 137]
